“And” between values parts separate entries of the source, which are not always exact repeats. Equal entries are not always repeated. Where two headings read alike, the source gives them in different places.
What was measured:
[1] = test system: MRL/MpJ-Fas^lPr autoimmune mice; experiment: Auditory brainstem response (ABR) audiometry after oral steroid treatment; type: in vivo, mouse; conditions: for % of ears that are same (unchanged) / % of ears that are worse / % of ears that are better: two months following treatment, dose not stated; for % of ears that are same (unchanged): combined ABR thresholds +/-15 dB; for % of ears that are worse: combined ABR thresholds higher by 20 dB or more; for % of ears that are better: combined ABR thresholds lower by 20 dB or more
Text: The MRL/MpJ-Fas^lPr autoimmune mouse is an established model of autoimmune sensorineural hearing loss (Ruckenstein et al., Acta OtolaryngoL 113:160-5, 1993; Trune et al. Hear. Res. 105:57-64, 1997). These mice carry a Fas gene defect that prevents apoptosis of self-recognizing T lymphocytes, leading to T cell proliferation and polyclonal B cell activation (Watanabe-Fukunaga et al. Nature 356:314-7, 1992). Spontaneous systemic autoimmune disease develops in MRL/MpJ-Fas^lPr autoimmune mice, resulting in increased serum immune complexes, anti-DNA antibodies, lymphadenopathy, elevated auditory thresholds, lowered hematocrits due to anti-erythrocyte autoantibodies, splenomegaly, increased body mass and pathological changes in the stria vascularis (Id. and Ruckenstein et al. Otolaryngol. Head Neck Surg. 121:452-6, 1999; Trune et al. Hear. Res. 155:9-20, 2001).
Mice (Jackson Laboratories, Bar Harbor, Me.) were obtained at two months of age. Onset of systemic autoimmune disease occurs at 3-4 months of age and cochlear thresholds rise shortly thereafter (Trune et al., Otolaryngol. Head Neck Surg. 117:504-8, 1997). Mice were tested with auditory brainstem response (ABR) audiometry (see Example 2) at 2-3 months of age to establish pretreatment baseline auditory thresholds.
(§1) Animals were anesthetized (kcetamine+xylazine) and the individual ears of each mouse stimulated with a closed-tube sound delivery system sealed into the ear canal. The ABR to tone-burst stimuli at 4, 8, 16, and 32 kHz was recorded and thresholds obtained for each ear. Absolute thresholds and threshold changes over the treatment period for each ear were calculated to determine if treatments impact cochlear function. For each ear, pretreatment and posttreatment thresholds at the four frequencies were compared statistically to establish any change over the treatment period.
(§2) The shifts for each frequency within an ear were added to derive its total change in threshold as described previously (Trune et al., Hear. Res. 137:160-6, 1999; Trune et al., Hear. Res. 137:167-73, 1999). If the ear's combined posttreatment thresholds was lower by 20 dB or more, the ear was considered to be improved (average of 5 dB per frequency). The ear is considered unchanged if the combined thresholds are +/−15 dB and worse if the combined thresholds were higher by 20 dB or more.

[2] = test system: MRL/MpJ-Fas^lPr autoimmune mice; experiment: Blood hematocrit as index of systemic autoimmune disease; type: in vivo, mouse; conditions: for change in hematocrit: pre- vs posttreatment, any dose
Text: (§3) This example describes methods used to measure the severity of systemic autoimmune disease, as described in Trune et al. (Hear. Res. 38:57-66, 1989). Briefly, baseline and posttreatment serum samples are taken for measurement of hematocrit, antinuclear antibodies, and serum immune complexes as indices of systemic autoimmune disease progression. […] For those mice still alive at the time of sacrifice, some spleens were weighed to assess splenomegaly, another index of systemic autoimmune disease progression.
(§4) It may not be possible to perform an extensive statistical analysis on serum measures if there are high mortality rates, if the differential mortality rates between groups lead to large differences in sample sizes, and an inability to get sufficient blood from some mice. In this case, pretreatment-posttreatment statistical comparisons (paired t-tests) are conducted only for those mice that survive the treatment period.

[3] = test system: MRL/MpJ-Fas^lPr autoimmune mice; experiment: Serum immune complexes as index of systemic autoimmune disease; type: in vivo, mouse; conditions: for effect on serum immune complexes: pre- vs posttreatment
Text: as §3, §4

[4] = test system: MRL/MpJ-Fas^lPr autoimmune mice; experiment: Anti-nuclear antibody (ANA) levels by immunofluorescence; type: in vivo, mouse; conditions: pre- vs posttreatment
Text: as §3
Antibodies against nuclear material are another manifestation of autoimmune disease. Anti-nuclear antibody (ANA) levels are determined by level of immunofluorescence (1+ to 4+) with normal as 1+as previously described (Trune et al., Hear. Res. 38:57-66, 1989).

[5] = test system: MRL/MpJ-Fas^lPr autoimmune mice; experiment: Spleen weight (splenomegaly); type: in vivo, mouse; conditions: at sacrifice; prednisolone 5 mg treatment; aldosterone dose not stated
Text: as §3
Increased spleen size also is a manifestation of autoimmune disease, increasing with progression of systemic T and B cell proliferation. The spleen is approximately 75-100 mg in normal mice.

[6] = test system: MRL/MpJ-Fas^lPr autoimmune mice; experiment: Cochlear histology of the stria vascularis; type: in vivo, mouse; conditions: for stria vascularis appearance: after steroid treatment, qualitative
Procedure: Following decalcification in EDTA, the ears were cryostat sectioned for qualitative morphologic evaluations of the stria vascularis. The procedure of Whitlon et al. (Brain Res. Protocols, 6:159-66, 2001) can be used to improve OCT compound infiltration and tissue preservation. The cochleas were cryostat sectioned for immunocytochemical analyses. Quantitative morphology was performed on glycol methacrylate (GMA) embedded tissue as follows. […] Following decalcification in EDTA, the ears were embedded in glycol methacrylate for light microscopic examination. Every fourth section (5 μm thickness) wass serially mounted on glass slides and stained for quantitative and qualitative analyses. Cochleas were scanned for pathological changes and treatment effects. Of particular interest is the stria vascularis, lateral wall, hair cells, spiral ganglion neurons, and all blood vessels in modiolar and sensory regions. The area occupied by stria vascularis, blood vessels, non-blood vessels, and intercellular edema was measured for statistical analysis. Alternatively, the following methods can be used to qualitatively determine stria vascularis and spiral ligament and integrity of endothelial cell tight junctions, intercellular edema. […] Thin sections are observed on a Philips CM100. Qualitative observations are made of the cochlear tissue areas above and any other regions determined in the immunohistochemistry section to be responsive to steroid therapy. Stria vascularis is examined for integrity of endothelial cell tight junctions, and intercellular edema, to determine the treatment effects on known changes that occur in autoimmune disease.

[7] = test system: MRL/MpJ-Fas^lPr autoimmune mice; experiment: Drug combination therapy: ABR ear outcome; type: in vivo, mouse
Procedure: as §1, §2
Hearing loss was monitored monthly using the method described in Example 2.

[8] = test system: MRL/MpJ-Fas^lPr autoimmune mice; experiment: Drug combination therapy: survival; type: in vivo, mouse; conditions: for % alive: 2 months
[9] = test system: MRL/MpJ-Fas^lPr autoimmune mice; experiment: Stria blood vessel size (quantitative morphology, plastic embedding); type: in vivo, mouse; conditions: Chi-squared of vessels above and below normal median
Text: To increase histological detail in order to quantitatively measure steroid responsive hearing loss (stria blood vessel sizes), plastic embedding methods were used as described herein. Age-matched BALB/c controls also were processed to provide details of non-autoimmune stria. Camera lucida drawings were made of the stria, its blood vessels, and the edematous spaces. Digitized measurements were made of these various features.

[10] = test system: MRL/MpJ-Fas^lPr autoimmune mice; conditions: mouse, in vivo
Text: (§5) Serum samples were collected for baseline levels of hematocrit, serum immune complexes, and antinuclear antibodies, all hallmarks of systemic autoimmune disease. […] At the end of treatments, ABR audiometry and serum collection were repeated at 2, 3, and 4 months of treatment to determine steroid effects on cochlear function and systemic autoimmunity.
(§6) Oral delivery in mice provides a constant source of steroid, parallels oral administration in humans, and avoids the trauma of daily injections.
(§7) Mice receiving aldosterone were administered a daily oral dose of 3, 5, 15, or 30 μLg/kg/day of d-aldosterone (Sigma, St. Louis Mo.). Aldosterone drinking water was prepared by dissolving 50 μg of steroid in 50 μl of 100% ETOH, then diluting the required amount in the 500 ml of water in the drinking bottle to reach the final effective dose. The highest final ETOH concentration in a waterbottle was 0.018% (90 μl dose) and was considered negligible.
(§8) Mice receiving fludrocortisone were administered a daily oral dose of 3 μg/kg per day or 10 μg/kg per day. Fludrocortisone drinking water was prepared by dissolving 50 μg of fludrocortisone, 50 μl of 100% ETOH, then diluting the required amount in the 500 ml of water in the drinking bottle to reach the final effective dose. The final ETOH concentration in a water bottle was considered negligible.
(§9) The shift in thresholds between baseline and posttreatment times was analyzed for each ear with a paired t-test. […] A probability value less than 0.05 was considered significant in all tests. […] In addition, by summing the shifts at each frequency, any random fluctuations in thresholds at the different frequencies due to equipment or animal variation are mathematically removed.

[11] = test system: MRL/MpJ-Fas^lPr autoimmune mice; conditions: Trune et al., Laryngoscope 2000; cited from earlier work
[12] = test system: MRL/MpJ-Fas^lPr autoimmune mice
Procedure: (§10) The spironolactone treatment group was given daily oral doses (5 mg/kg per day) of spironolactone (Sigma, St. Louis, Mo.). Spironolactone drinking water was prepared by dissolving 15 mg of spironolactone in 0.6-0.8 ml of 100% ethyl alcohol (ETOH) and diluting it into a 500 ml drinking-water bottle. Mice drink 3-5 ml of water daily, so the effective dose was approximately 0.15 mg per day. The final ETOH concentration was approximately 0.1% and considered negligible. The dose of spironolactone administered (5 mg/kg per day) was equivalent to the dose used clinically for the treatment of primary hyperaldosteronism and was likely insufficient to completely block the mineralocorticoid receptor.
The spironolactone+aldosterone treatment group was given 15 μg/kg per day of aldosterone in addition to the 5 mg/kg/day of spironolactone. Aldosterone drinking water was prepared by dissolving 50 μg of aldosterone in 50 μl of 100% ETOH and diluting it in the same 500 ml drinking-water bottle as the spironolactone. The final effective dose of aldosterone was approximately 0.5 μg per day. The final ETOH concentration of aldosterone was less than 0.009%. […]
ABR thresholds were recorded before and during treatment (2, 3, and 4 months) to measure the effect of steroids on hearing decline as described above in Example 2.
Ears also were analyzed independently across all frequencies. […]

[13] = test system: MRL/MpJ-Fas^lPr autoimmune mice; conditions: spironolactone study
Procedure: as §10

[14] = test system: MRL/MpJ-Fas^lPr autoimmune mice; experiment: Survival and tolerance of steroid drinking water; conditions: for tolerance of steroid in the drinking water: dehydration, avoidance of drinking
Text: as §5, §6, §7, §8, §9

[15] = Aldosterone 10 μg/kg/day, 2 months of treatment

## C[C@]12CCC(=O)C=C1CC[C@@H]1[C@@H]2[C@@H](O)C[C@]2(C=O)[C@@H](C(=O)CO)CC[C@@H]12 [Aldosterone, d-aldosterone]
[1]; two month treatment period
  overall ABR threshold changes vs pretreatment baselines: prevent significant overall threshold changes
[1]
  % of ears that are same (unchanged): 27%
  % of ears that are worse: 69%
  % of ears that are better: 4%
[1]; two months of treatment, Chi-squared
  thresholds / cochlear function relative to water controls: significantly better thresholds than controls
[2]
  change in hematocrit: did not cause any significant change
[3]; higher dose aldosterone, four surviving mice
  posttreatment serum immune complex levels: 53,000 μg/ml
[3]; higher dose aldosterone, two of the four surviving mice
  serum immune complex levels in individual mice: 157,000 μg/ml and 45,000 μg/ml
[3]
  effect on serum immune complexes: did not show any significant depression
[4]
  impact on continuing elevation of ANA levels: did not have a significant impact
[5]
  average spleen weight: 399 mg
[6]
  stria vascularis appearance: restored the stria to almost normal appearance
[6]; aldosterone 15 and 30 μg treatment groups
  stria appearance: virtually normal in appearance
[6]; lowest aldosterone dose
  stria epithelia appearance: some edema and large vessels
[7]; [15]
  # Better (ears): 0
  # Worse (ears): 13
  # no change (ears): 1
  (%) Worse (ears): (93%)
  (%) no change (ears): 7%
[7]; prednisolone alone at 1 mg/kg/day, aldosterone alone at 3 μg/kg/day
  prevention of hearing loss / decrease of rate of hearing loss: not prevented
[8]; Aldosterone 10 μg/kg/day
  Alive at 2 months of Tx (mice): 7
  % alive: 87.5%
[9]
  stria blood vessel size relative to normal BALB/c median (35.3 μm^2): the same size as normal mice
[10]
  tolerance of steroid in the drinking water: no adverse affects
[11]
  reversing or stabilizing autoimmune related hearing loss: just as effective as prednisolone

## CC(=O)S[C@@H]1CC2=CC(=O)CC[C@]2(C)[C@H]2CC[C@@]3(C)[C@@H](CC[C@@]34CCC(=O)O4)[C@H]12 [Spironolactone]
[12]; four months of treatment
  hearing patterns compared to water controls: no difference from controls
[12]; three months of treatment
  hearing thresholds compared to water controls: no different from untreated mice
[13]
  systemic immune disease (immune complexes, hematocrits, body weights): normal progression of systemic disease

## prednisolone sodium phosphate
[2]; higher dose prednisolone
  hematocrits: elevated hematocrits beyond the normal range
[2]; lower prednisolone dose
  average hematocrits: in the normal range
[2]
  change in hematocrit: elevated hematocrits
[3]; higher prednisolone dose, dropped from 3,920 μg/ml
  serum immune complex levels after treatment: approximately 450 μg/ml
[3]
  effect on serum immune complexes: lowered serum immune complexes in a dose dependent manner
[3]; prednisolone 5 mg dose, reduced from 4,570 μg/ml
  serum immune complexes after treatment: 1,092 μg/ml
[4]
  impact on continuing elevation of ANA levels: did not have a significant impact
[5]
  average spleen weight: 45 mg
[6]
  stria vascularis appearance: proper epithelium thickness, although dilated vessels still were seen
[8]; Prednisolone 3 mg/kg/day
  Alive at 2 months of Tx (mice): 3
  % alive: 42.9%
[13]
  systemic immune disease (immune complexes, hematocrits, body weights): all of the normal immune suppression effects
[14]
  tolerance of steroid in the drinking water: no adverse affects
[14]; end of two months of treatment
  survival: 60-65%

## C[C@]12CCC(=O)C=C1CC[C@H]1[C@@H]3CC[C@](O)(C(=O)CO)[C@@]3(C)C[C@H](O)[C@@]12F [Fludrocortisone]
[1]
  % of ears that are same (unchanged): 55% and 54.5%
  % of ears that are worse: 34%
  % of ears that are better: 12% and 11.5%
[14]
  tolerance of steroid in the drinking water: similarly tolerate

Source: patent publication US20060013858A1, “Fludrocortisone treatment for hearing loss” (priority 2002, published 2006)
